The values below come from ChEMBL document CHEMBL1122681, “(Acylaryloxy)acetic acid diuretics. 5. [(2-Alkyl- and 2,2-disubstituted-1,3-dioxo-5-indanyl)oxy]acetic acids” (J Med Chem, 1984).

Series [1] has as its system Canis familiaris. Description: Compound was evaluated for diuretic activity, in female mongrel dogs by measuring volume of urine, after iv administration of 5 mg/kg (control/compound treatment results) Control = 1. Format: ADME, organism-based, Canis lupus familiaris. More on the design: dose 5 mg/kg, route intravenous. As to conditions: dog, in vivo.
Series [2] can be described thus: volume of urine at 3 mg/kg. Format: ADME, organism-based. More on the design: dose 3 mg/kg. As to conditions: in vivo.
A short description of series [3]: volume of urine at 81 mg/kg. Format: ADME, organism-based. As to conditions: in vivo. More on the design: dose 81 mg/kg.
Series [4] in a line: volume of urine at 9 mg/kg. More on the design: dose 9 mg/kg. Format: ADME, organism-based. The following applies: in vivo.
Series [5] concerns Pan troglodytes. Description: Compound was evaluated for diuretic activity in chimpanzee measured as increase in volume of urine at 1 mg/kg. Format: functional.
Series [6] concerns Pan troglodytes. Kind of series: Compound was evaluated for diuretic activity in chimpanzee measured as clearance of […] and urate after intra venous administration of 1.25 mg/kg. Format: functional, Urine.
Series [7] concerns Pan troglodytes. Kind of series: Compound was evaluated for diuretic activity in chimpanzee measured as clearance of […] and urate after peroral administration of 5 mg/kg. Format: functional, Urine. The following applies: route oral.
Series [8] relates to Pan troglodytes. Description: Compound was evaluated for diuretic activity in chimpanzee measured as increase in the number of microequivalents of Na+ /min at 1.25 mg/kg. Format: functional, Urine.
Series [9] concerns Pan troglodytes. Kind of series: Compound was evaluated for diuretic activity in chimpanzee measured as increase in the number of microequivalents of Na+ /min at 5 mg/kg. Format: functional, Urine.
The subject of series [10] is Pan troglodytes. Kind of series: Compound was evaluated for diuretic activity in chimpanzee measured as increase in the number of microequivalents of cl- /min at 1.25 mg/kg. Format: functional, Urine.
In series [11] the test system is Pan troglodytes. Kind of series: Compound was evaluated for diuretic activity in chimpanzee measured as increase in volume of urine at 0.125 mg/kg. Format: functional.
The test system of series [12] is Pan troglodytes. Description: Compound was evaluated for diuretic activity in chimpanzee measured as increase in the number of microequivalents of Cl- electrolyte/min at 5 mg/kg. Format: functional, Urine.
The test system of series [13] is Pan troglodytes. Description: Compound was evaluated for diuretic activity in chimpanzee measured as increase in the number of microequivalents of K+ /min at 1.25 mg/kg. Format: functional, Urine.
Series [14] deals with Canis familiaris. Kind of series: Compound was evaluated for diuretic activity, in female mongrel dogs by measuring amount of Cl- in urine after iv administration of 5 mg/kg (control/compound treatment results) Control = 8. Format: functional, Canis lupus familiaris.
Series [15] has as its system Pan troglodytes. Kind of series: Compound was evaluated for diuretic activity in chimpanzee measured as increase in the number of microequivalents of K+ /min at 5 mg/kg. Format: functional, Urine.
The test system of series [16] is Canis familiaris. Description: Compound was evaluated for diuretic activity, in female mongrel dogs by measuring amount of Na+ in urine after iv administration of 5 mg/kg (control/compound treatment results) Control = 42. Format: functional, Canis lupus familiaris.
Series [17] relates to Canis familiaris. Kind of series: Compound was evaluated for diuretic activity, in female mongrel dogs by measuring amount of K+ in urine after iv administration of 5 mg/kg (control/compound treatment results) Control = 5. Format: functional, Canis lupus familiaris.
For series [18], the system named is Rattus norvegicus. Description: Compound was evaluated for diuretic activity administered orally in female rats measured as milliequivalents of Na+x 100 / cage at 81 mg/kg. Format: functional, Urine. As to conditions: route oral.
In series [19] the test system is Rattus norvegicus. Description: Compound was evaluated for diuretic activity administered orally in female rats measured as milliequivalents of Na+x 100 / cage at 9 mg/kg. The following applies: route oral. Format: functional, Urine.
For series [20], the system named is Rattus norvegicus. Description: Compound was evaluated for diuretic activity administered orally in female rats measured as milliequivalents of Cl-+x 100 / cage at 27 mg/kg. Format: functional, Urine. As to conditions: route oral.
The test system of series [21] is Rattus norvegicus. Kind of series: Compound was evaluated for diuretic activity administered orally in female rats measured as milliequivalents of Cl-x 100 / cage at 3 mg/kg. Format: functional, Urine. As to conditions: route oral.
Series [22] concerns Rattus norvegicus. Description: Compound was evaluated for diuretic activity administered orally in female rats measured as milliequivalents of Cl-x 100 / cage at 81 mg/kg. Format: functional, Urine. As to conditions: route oral.
For series [23], the system named is Rattus norvegicus. Kind of series: Compound was evaluated for diuretic activity administered orally in female rats measured as milliequivalents of Cl-x 100 / cage at 9 mg/kg. As to conditions: route oral. Format: functional, Urine.
The subject of series [24] is Rattus norvegicus. Description: Compound was evaluated for diuretic activity administered orally in female rats measured as milliequivalents of K+x 100 / cage at 27 mg/kg. Format: functional, Urine. As to conditions: route oral.
Series [25] has as its system Rattus norvegicus. Description: Compound was evaluated for diuretic activity administered orally in female rats measured as milliequivalents of K+x 100 / cage at 3 mg/kg. Format: functional, Urine. As to conditions: route oral.
Series [26] has as its system Rattus norvegicus. Description: Compound was evaluated for diuretic activity administered orally in female rats measured as milliequivalents of K+x 100 / cage at 81 mg/kg. Format: functional, Urine. The following applies: route oral.
Series [27] has as its system Rattus norvegicus. Description: Compound was evaluated for diuretic activity administered orally in female rats measured as milliequivalents of K+x 100 / cage at 9 mg/kg. Format: functional, Urine. As to conditions: route oral.
The test system of series [28] is Rattus norvegicus. Kind of series: Compound was evaluated for diuretic activity administered orally in female rats measured as milliequivalents of Na+x 100 / cage at 27 mg/kg. Format: functional, Urine. As to conditions: route oral.
The subject of series [29] is Rattus norvegicus. Kind of series: Compound was evaluated for diuretic activity administered orally in female rats measured as milliequivalents of Na+x 100 / cage at 3 mg/kg. The following applies: route oral. Format: functional, Urine.
Series [30] is described as follows: volume of urine at 27 mg/kg. Format: ADME, organism-based. More on the design: dose 27 mg/kg. The following applies: in vivo.
In series [31] the test system is Canis familiaris. Kind of series: Compound was evaluated for diuretic activity, in female mongrel dogs by measuring volume of urine, after iv administration of 5 mg/kg (control/compound treatment results) Control = 2. More on the design: dose 5 mg/kg, route intravenous. The following applies: dog, in vivo. Format: ADME, organism-based, Canis lupus familiaris.
Series [32] relates to Pan troglodytes. Kind of series: Compound was evaluated for diuretic activity in chimpanzee measured as increase in volume of urine at 5 mg/kg. Format: functional.
Series [33] has as its system Pan troglodytes. Description: Compound was evaluated for diuretic activity in chimpanzee measured as clearance of […] and urate after intra venous administration of 5 mg/kg. Format: functional, Urine.
Series [34] deals with Pan troglodytes. Description: Compound was evaluated for diuretic activity in chimpanzee measured as increase in the number of microequivalents of Na+ /min at 1 mg/kg. Format: functional, Urine.
The subject of series [35] is Pan troglodytes. Description: Compound was evaluated for diuretic activity in chimpanzee measured as increase in the number of microequivalents of Cl- /min at 5 mg/kg. Format: functional, Urine.
The subject of series [36] is Pan troglodytes. Kind of series: Compound was evaluated for diuretic activity in chimpanzee measured as increase in the number of microequivalents of Cl- electrolyte/min at 1 mg/kg. Format: functional, Urine.
Series [37] has as its system Pan troglodytes. Kind of series: Compound was evaluated for diuretic activity in chimpanzee measured as increase in the number of microequivalents of K+ /min at 1 mg/kg. Format: functional, Urine.
The test system of series [38] is Canis familiaris. Description: Compound was evaluated for diuretic activity, in female mongrel dogs by measuring amount of K+ in urine after iv administration of 5 mg/kg (control/compound treatment results) Control = 13. Format: functional, Canis lupus familiaris.
Series [39] concerns Canis familiaris. Description: Compound was evaluated for diuretic activity, in female mongrel dogs by measuring amount of Cl- in urine after iv administration of 5 mg/kg (control/compound treatment results) Control = 5. Format: functional, Canis lupus familiaris.
The subject of series [40] is Canis familiaris. Kind of series: Compound was evaluated for diuretic activity, in female mongrel dogs by measuring amount of Na+ in urine after iv administration of 5 mg/kg (control/compound treatment results) Control = 59. Format: functional, Canis lupus familiaris.
For series [41], the system named is Pan troglodytes. Kind of series: Compound was evaluated for diuretic activity in chimpanzee measured as increase in volume of urine at 1.25 mg/kg. Format: functional.
Series [42] concerns Pan troglodytes. Kind of series: Compound was evaluated for diuretic activity in chimpanzee measured as clearance of […] and urate after intravenous administration of 1.25 mg/kg. Format: functional, Urine.
In series [43] the test system is Pan troglodytes. Description: Compound was evaluated for diuretic activity in chimpanzee measured as increase in the number of microequivalents of Cl- electrolyte/min at 1.25 mg/kg. Format: functional, Urine.
For series [44], the system named is Canis familiaris. Kind of series: Compound was evaluated for diuretic activity, in female mongrel dogs by measuring amount of K+ in urine after iv administration of 5 mg/kg (control/compound treatment results) Control = 10. Format: functional, Canis lupus familiaris.
Series [45] has as its system Canis familiaris. Description: Compound was evaluated for diuretic activity, in female mongrel dogs by measuring amount of Cl- in urine after iv administration of 5 mg/kg (control/compound treatment results) Control = 4. Format: functional, Canis lupus familiaris.
Series [46] concerns Canis familiaris. Description: Compound was evaluated for diuretic activity, in female mongrel dogs by measuring amount of Na+ in urine after iv administration of 5 mg/kg (control/compound treatment results) Control = 22. Format: functional, Canis lupus familiaris.

As for `CCC1(C)C(=O)c2cc(OCC(=O)O)c(Cl)c(Cl)c2C1=O` (stereo not drawn), the Urine volume in series [1] came out at 2 mL/min; in [2] it was 30 mL; in [3], 31 mL; in series [4] it was 29 mL; in series [30], 27 mL. In addition, the Increase in volume in series [5] is 2 mL/min; in [11], 1.4 mL/min. The “Delta C urate / delta C insulin” value in series [6] is recorded as 0.43; in [7], 0.007. The Increase in [8] is on record as 187; in series [9], 217; in series [10] it was 267; in [12], 226; in [13], 41; in series [15], 30. For the same compound, the Activity in series [14] was found to be 179 u equiv min-1; in series [16] it was 247 u equiv min-1; in series [17], 7 u equiv min-1; in series [18], 164; in series [19], 80; in [20], 130. Further, the Activity in [21] worked out at 64; in [22], 250; in series [23], 97; in [24], 43; in [25], 46; in [26], 89. Also, the Activity was determined as 35 in series [27], 101 in [28] and 50 in series [29].

The compound `Cc1c(OCc2nn[nH]n2)cc2c(c1Cl)C(=O)C1(CCCC1)C2=O` returned a Urine volume in series [31] of 3 mL/min. The Increase in volume came out at 0.6 mL/min in series [5] and 0 mL/min in series [32]. In addition, the figures for the “Delta C urate / delta C insulin” value in series [33] and in series [7] were 0.128 and 0.026, respectively. Besides, the Increase stood at 119 in series [34]; 5 in [9]; 36 in series [35]; 172 in series [36]; 55 in series [37]; 2 in [15]. The Activity is 27 u equiv min-1 in [38], 11 u equiv min-1 in series [39] and 193 u equiv min-1 in [40].

In series [1], `CCC1(CC)C(=O)c2cc(OCC(=O)O)c(C)c(C)c2C1=O` showed a Urine volume of 2 mL/min. In addition, the Increase in volume in series [41] stood at 2.2 mL/min; in series [32] it was 0.6 mL/min. Besides, the “Delta C urate / delta C insulin” value was 0.258 in series [42] and 0.045 in series [7]. Moreover, the Increase in [8] stood at 243; in series [9], 103; in series [43] it was 288; in series [12], 120; in series [13], 46; in series [15], 32. In addition, the Activity in series [44] turned out to be 21 u equiv min-1; in series [45], 42 u equiv min-1; in series [46], 106 u equiv min-1.
